For the data set, the system named is rat dorsal root ganglion neurons. The experiment in a line: Stimulativeness of diquafosol sodium to peripheral nerves, intracellular calcium fluorescence (FLIPR Calcium 6). The data set is classed as cell-based. Here is the method:
The stimulativeness of diquafosol sodium to peripheral nerves in the coexistence of PVP was examined.
Cultured peripheral nerve cells (rat dorsal root ganglion neurons, purchased from Lonza Japan Ltd.) were incubated in a buffer solution (FLIPR Calcium 6 Assay Kit, Molecular Devices, LLC.) including intracellular fluorescent calcium indicator dyes. 40% of the total buffer solution was replaced with each of the aforementioned formulation solutions. The non-stimulation group and the stimulated control group were treated with the buffer solutions instead of the formulation solutions in the same manner. After allowing to stand at room temperature, the fluorescence measurement of the calcium indicator dyes with an elapse of time was started by using a fluorescent plate reader. Diquafosol sodium (final concentration: 0.3%) was added after 60 seconds from the start, and the measurement of fluorescence intensity was continued.
The maximum fluorescence intensity (RFUmax) after addition of diquafosol sodium was calculated relative to the fluorescence intensity (RFU) immediately before the addition as 100%.
(A change in cytosolic calcium serves as a functional read-out for many receptors and channels.)

With `O=c1ccn([C@@H]2O[C@H](COP(=O)([O-])OP(=O)([O-])OP(=O)([O-])OP(=O)([O-])OC[C@H]3O[C@@H](n4ccc(=O)[nH]c4=O)[C@H](O)[C@@H]3O)[C@@H](O)[C@H]2O)c(=O)[nH]1.[Na+].[Na+].[Na+].[Na+]` [diquafosol sodium, diquafosol tetrasodium salt], the “fluorescence intensity / signal of intracellular calcium ions after addition of diquafosol sodium (in words)” value (peripheral nerve cells exposed to diquafosol sodium 0.3%, with or without formulation solution) is “rapidly increased”. Also, the “maximum fluorescence intensity (RFUmax) after addition of diquafosol sodium” value (stimulated control group: buffer solution instead of formulation solution, diquafosol sodium final concentration 0.3%, RFU before addition as 100%) was no less than 103.5%.
